Results reported in US11571444B2, “Enhancement of MSC immunomodulatory properties by treprostinil” (United Therapeutics Corporation, priority 2016, dated 2023).

What was measured:
[1] = tested on: HLA expression in MSC; assay: RNA analysis of immunosuppressive factor HLA in exposed MSC; format: cell-based, human; settings: 48 hours
Protocol: (§1) A single vial of human bone marrow-derived MSC was expanded and seeded using standard growth medium. At 95-99% confluency, cells were thoroughly washed with phosphate-buffered saline (PBS) and exposed to media containing treprostinil at doses ranging from 250 μg/mL to 0.004 μg/mL. After 48 hours of culture, cells were photographed and assessed for treatment-induced changes in morphology.
(§2) RNA from MSCs exposed to treprostinil of from 250 μg/mL to 0.004 μg/mL was re-analyzed for several other anti-inflammatory factors.

[2] = tested on: TGFβ expression in MSC; assay: RNA analysis of immunosuppressive factor TGFβ in exposed MSC; format: cell-based, human; settings: 48 hours
Protocol: as §1, §2

[3] = tested on: iNOS expression in MSC; assay: RNA analysis of immunosuppressive factor iNOS in exposed MSC; format: cell-based, human; settings: 48 hours
Protocol: as §1, §2

[4] = tested on: TNFα expression in MSC; assay: RNA analysis of pro-inflammatory cytokine TNFα in exposed MSC; format: cell-based, human; settings: 48 hours
Protocol: as §1
(§3) Cells exposed to treprostinil ranging from 250 μg/mL-0.004 μg/mL as described in Example 1 were harvested. RNA of the cells was extracted and then analyzed for pro- and anti-inflammatory cytokines. Cytokines, or small proteins involved in both internal and secreted cell signaling, have been identified to play a role in the inflammatory pathogenesis of PAH (Groth et al., Respiratory Research, 15:47 (2014)).

[5] = tested on: IDO1 expression in MSC; assay: RNA analysis of immunosuppressive factor IDO1 in exposed MSC; format: cell-based, human; settings: 48 hours
Protocol: as §1, §2

[6] = tested on: IL13 expression in MSC; assay: RNA analysis of anti-inflammatory cytokine IL13 in exposed MSC; format: cell-based, human; settings: 48 hours
Protocol: as §1, §3

[7] = tested on: IL10 expression in MSC; assay: RNA analysis of anti-inflammatory cytokine IL10 in exposed MSC; format: cell-based, human; settings: 48 hours
Protocol: as §1, §3

[8] = tested on: human bone marrow-derived MSC; assay: MSC morphology after 48 hours exposure (cytotoxic effect); format: cell-based; settings: 48 hours of culture
Protocol: as §1

CCCCC[C@H](O)CC[C@@H]1[C@H]2Cc3cccc(OCC(=O)O)c3C[C@H]2C[C@H]1O [treprostinil]
HLA over unexposed control ([1]; 9.3 μg/mL): increased | HLA over control ([1]; increasing doses): robust increase | TGFβ over unexposed control ([2]; 9.3 μg/mL): increased | TGFβ over control ([2]; increasing doses): robust increase | iNOS over unexposed control ([3]; 9.3 μg/mL): increased | iNOS over control ([3]; increasing doses): robust increase | lowering of TNFα expression compared to control ([4]; 0.3 μg/mL to 83.3 μg/mL): up to 4.7 fold | TNFα over unexposed control ([4]; 9.3 μg/mL): decreased | IDO over unexposed control ([5]; 9.3 μg/mL): increased | IDO1 over control ([5]; increasing doses): robust increase | IL13 over unexposed control ([6]; 9.3 μg/mL): increased | increase of IL13 expression in MSC ([6]; 27.8 μg/mL): 8.8 fold | IL13 signaling over control ([6]; increasing doses): increase | increase of IL10 expression in MSC ([7]; 9.3 μg/mL): 5.4 fold | IL10 signaling over control ([7]; increasing doses): increase | MSC morphology (cytotoxic effect) ([8]; 83.3 μg/mL or lower): did not cause morphological changes associated with cell death | MSC morphology (cytotoxic effect) ([8]; 250 μg/mL): rounded up and detached
